Data reported in patent US5324832A, “Muscarinic antagonists” (priority 1991, dated 1994).

What was measured:
m1 muscarinic receptors = target: T1, m1 muscarinic receptors (Rattus norvegicus, UniProt P08482); experiment: Irreversible labelling: [3H]NMS saturation of treated vs. control rat forebrain membranes; format: binding; details: in words
T1 sequence (P08482 1-460): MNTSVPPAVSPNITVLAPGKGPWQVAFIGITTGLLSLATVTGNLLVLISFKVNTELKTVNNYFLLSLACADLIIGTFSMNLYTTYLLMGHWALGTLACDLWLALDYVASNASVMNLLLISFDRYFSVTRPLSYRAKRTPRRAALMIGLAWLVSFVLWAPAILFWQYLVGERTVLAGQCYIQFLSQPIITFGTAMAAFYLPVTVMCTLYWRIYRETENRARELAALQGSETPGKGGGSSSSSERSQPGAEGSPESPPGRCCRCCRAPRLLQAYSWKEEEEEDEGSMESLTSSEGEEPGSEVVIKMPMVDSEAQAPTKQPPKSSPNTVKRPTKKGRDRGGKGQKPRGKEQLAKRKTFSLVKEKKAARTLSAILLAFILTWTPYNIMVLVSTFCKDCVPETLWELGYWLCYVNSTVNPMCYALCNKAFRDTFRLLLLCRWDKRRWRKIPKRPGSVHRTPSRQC
Description: When incubated with membranes from rat forebrain tissue […] followed by thorough washing, compound 41a caused an unrecoverable reduction in the Bmax at m1 receptors of 90-95% (from saturation of treated vs. control membranes with [3H]NMS).

gastric acid production = details: clinical; in words; cited from earlier work

SMILES	chemical affinity labelling of m1 receptors (m1 muscarinic receptors)	inhibition of gastric acid production (literature) (gastric acid production)
O=C1Nc2cccnc2N(C(=O)CN2CCN(CCCCCCCCCCNC(=S)Nc3cccc(N=C=S)c3)CC2)c2ccccc21 [Compound 41a, n=10, 5,11-Dihydro-11-[[4-[10-[(3-isothiocyanatophenyl)aminothiocarbonylamino]decyl]-1-piperazinyl]acetyl]-6H-pyrido[2,3-b][1,4]-benzodiazepine-6-one]	potent chemical affinity label for ml receptors	
CN1CCN(CC(=O)N2c3ccccc3C(=O)Nc3cccnc32)CC1 [pirenzepine]		useful clinically in the inhibition of gastric acid production
